The text below walks through data of PubChem BioAssay (NCI).

Each structure is given as a SMILES string.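 Results reflect a 48-hour exposure of cells in 96-well plates to compound at five concentrations. The concentration for full growth arrest is given as TGI.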 Some results are limits rather than exact numbers.

Among the test systems are NCI-H226 lung; HL-60(TB) leukemia; NCI-H23 lung; SW-620 colon; HCC-2998 colon; NCI/ADR-RES ovarian; SK-MEL-2 melanoma; CCRF-CEM leukemia; OVCAR-5 ovarian; MDA-MB-435; LOX IMVI melanoma; K-562 leukemia; OVCAR-3 ovarian; SF-268 CNS; M14 melanoma; HOP-92 NSCLC.
Assay in all cases: DTP human tumour cell line panel, 48 h

Take `COCOc1cc(OC)c(Br)cc1C/C(=N/O)C(=O)OC`: the TGI in the experiment with NCI-H226 lung, with HL-60(TB) leukemia, with NCI-H23 lung, with SW-620 colon, in the experiment on HCC-2998 colon and in the experiment on NCI/ADR-RES ovarian was more than 100 µM each time. Besides, the TGI in the experiment with SK-MEL-2 melanoma, with CCRF-CEM leukemia, in the experiment with OVCAR-5 ovarian, with MDA-MB-435, in the experiment on LOX IMVI melanoma and with K-562 leukemia was more than 100 µM in each case. Moreover, the total growth inhibition concentration (TGI) in the experiment with OVCAR-3 ovarian, in the experiment on SF-268 CNS and in the experiment with M14 melanoma was more than 100 µM each time.
Turning to `CCCC(=O)OCC1(CO)C/C(=C/CC(C(C)C)C(C)C)C(=O)O1` (stereo unspecified), the total growth inhibition concentration (TGI) in the experiment on NCI-H226 lung, in the experiment on NCI-H23 lung, in the experiment on SW-620 colon, in the experiment with HCC-2998 colon, with NCI/ADR-RES ovarian and with HOP-92 NSCLC was more than 100 µM throughout. Also, the TGI with SK-MEL-2 melanoma is more than 100 µM; with CCRF-CEM leukemia it was more than 100 µM; in the experiment with OVCAR-5 ovarian, more than 100 µM; with MDA-MB-435, more than 100 µM; with LOX IMVI melanoma, 35.8 µM; in the experiment on OVCAR-3 ovarian it was more than 100 µM. The compound also showed a TGI with SF-268 CNS of more than 100 µM.
Turning to `CC(C)(O)/C=C\P(C)(=O)c1ccccc1` (stereo unspecified), the total growth inhibition concentration (TGI) with NCI-H226 lung, in the experiment with NCI-H23 lung, with SW-620 colon, in the experiment with HCC-2998 colon, with NCI/ADR-RES ovarian and in the experiment on HOP-92 NSCLC was more than 100 µM throughout. Further, the concentration for total growth inhibition (TGI) in the experiment on SK-MEL-2 melanoma, in the experiment on OVCAR-5 ovarian, with MDA-MB-435, with LOX IMVI melanoma, in the experiment with K-562 leukemia and in the experiment with OVCAR-3 ovarian was more than 100 µM throughout. The TGI in the experiment on SF-268 CNS and with M14 melanoma was more than 100 µM throughout.
In the case of `Nc1nc(N)c2ncn(-c3ccc(Cl)c(Cl)c3)c2n1`, the TGI is more than 100 µM in the experiment on NCI-H226 lung; 40.4 µM in the experiment with NCI-H23 lung; more than 100 µM in the experiment with SW-620 colon; more than 100 µM in the experiment on HCC-2998 colon; more than 100 µM in the experiment with NCI/ADR-RES ovarian; more than 100 µM in the experiment on HOP-92 NSCLC. Besides, the TGI in the experiment with SK-MEL-2 melanoma is 28 µM; with CCRF-CEM leukemia, 28.8 µM; in the experiment with OVCAR-5 ovarian, more than 100 µM; in the experiment with MDA-MB-435, more than 100 µM; with OVCAR-3 ovarian, 44.1 µM; in the experiment on SF-268 CNS it was more than 100 µM. Further, the TGI with M14 melanoma is more than 100 µM.
`CCOC(=O)/C(=C\c1ccnc2ccccc12)P(=O)(OCC)OCC`: the TGI with NCI-H226 lung worked out at 31.3 µM; with NCI-H23 lung, 4.22 µM; in the experiment on SW-620 colon it was 5.27 µM; with HCC-2998 colon, 26.7 µM; in the experiment with NCI/ADR-RES ovarian, 5.9 µM; in the experiment on HOP-92 NSCLC, 6.93 µM. In addition, the total growth inhibition concentration (TGI) with SK-MEL-2 melanoma was 4.49 µM; with CCRF-CEM leukemia, 1.96 µM; in the experiment on OVCAR-5 ovarian, 6.78 µM; with MDA-MB-435, 9.95 µM; with LOX IMVI melanoma it was 3.43 µM; with K-562 leukemia, 9.96 µM. The figures for the TGI with OVCAR-3 ovarian, with SF-268 CNS and in the experiment with M14 melanoma were 4.52 µM, 6.3 µM and 5.02 µM, respectively.
With `CN(C)CCn1c(=O)oc2cc(C(=O)CN3CCOCC3)ccc21`, the total growth inhibition concentration (TGI) in the experiment with NCI-H226 lung, in the experiment on HL-60(TB) leukemia, with NCI-H23 lung, in the experiment on SW-620 colon, in the experiment with NCI/ADR-RES ovarian and in the experiment on SK-MEL-2 melanoma was more than 100 µM throughout. In addition, the total growth inhibition concentration (TGI) in the experiment with CCRF-CEM leukemia, in the experiment with OVCAR-5 ovarian, in the experiment on MDA-MB-435, in the experiment on LOX IMVI melanoma, in the experiment on K-562 leukemia and in the experiment with OVCAR-3 ovarian was more than 100 µM throughout. Besides, the TGI in the experiment with SF-268 CNS and in the experiment with M14 melanoma was more than 100 µM in each case.
`O=C1N(CN2CCOCC2)CN(CN2CCOCC2)C(=O)N1Cc1ccc(-c2ccc(CN3C(=O)N(CN4CCOCC4)CN(CN4CCOCC4)C3=O)cc2)cc1`: the TGI in the experiment with NCI-H226 lung was more than 77.3 µM; in the experiment on NCI-H23 lung it was 47.5 µM; in the experiment on SW-620 colon, 30.7 µM; with HCC-2998 colon it was 28.3 µM; in the experiment on NCI/ADR-RES ovarian it was 80.8 µM; in the experiment with HOP-92 NSCLC it was 36.4 µM. The concentration for total growth inhibition (TGI) is more than 51.8 µM in the experiment with SK-MEL-2 melanoma; 39.8 µM in the experiment on OVCAR-5 ovarian; 13.6 µM with MDA-MB-435; 40.6 µM in the experiment with LOX IMVI melanoma; 69 µM in the experiment with K-562 leukemia; 30 µM in the experiment with OVCAR-3 ovarian. Moreover, the TGI in the experiment with SF-268 CNS turned out to be 59.3 µM; in the experiment on M14 melanoma, 21.3 µM.
As for `COc1cc(C2=C(C)[C@@H]3CN(CC=C3c3ccc(Cl)cc3)C2)c(S(=O)(=O)O)cc1OC`, the TGI in the experiment on NCI-H226 lung, with NCI-H23 lung, in the experiment with SW-620 colon, in the experiment with NCI/ADR-RES ovarian, in the experiment on HOP-92 NSCLC and in the experiment on SK-MEL-2 melanoma was more than 100 µM each time. Moreover, the TGI in the experiment on CCRF-CEM leukemia, in the experiment on OVCAR-5 ovarian, with MDA-MB-435, in the experiment with LOX IMVI melanoma, in the experiment on K-562 leukemia and in the experiment on OVCAR-3 ovarian was more than 100 µM each time. Besides, the TGI in the experiment with SF-268 CNS and in the experiment on M14 melanoma was more than 100 µM in each case.
`Brc1cccc(Nc2ncnc3sc4c(c23)CCC(Nc2cccc(Br)c2)C4)c1` (stereo unspecified): the TGI in the experiment on NCI-H23 lung, in the experiment with SW-620 colon, in the experiment with HCC-2998 colon, in the experiment with NCI/ADR-RES ovarian, with HOP-92 NSCLC and with SK-MEL-2 melanoma was more than 100 µM throughout. For the same compound, the total growth inhibition concentration (TGI) in the experiment with CCRF-CEM leukemia, in the experiment with OVCAR-5 ovarian, in the experiment with MDA-MB-435, in the experiment on LOX IMVI melanoma, with K-562 leukemia and in the experiment with OVCAR-3 ovarian was more than 100 µM throughout. Besides, the TGI with SF-268 CNS and in the experiment with M14 melanoma was more than 100 µM in each case.
Regarding `COC(=O)/C=C\[C@@H]1[C@H](C)N1S(=O)(=O)c1ccc(C)cc1` (stereo partly specified), the concentration for total growth inhibition (TGI) with NCI-H226 lung, in the experiment with HL-60(TB) leukemia, in the experiment with NCI-H23 lung, with SW-620 colon, in the experiment on HCC-2998 colon and in the experiment with NCI/ADR-RES ovarian was more than 100 µM in each case. For the same compound, the TGI with SK-MEL-2 melanoma, in the experiment with CCRF-CEM leukemia, with OVCAR-5 ovarian, in the experiment on MDA-MB-435, in the experiment with LOX IMVI melanoma and with K-562 leukemia was more than 100 µM in each case. Moreover, the TGI in the experiment on OVCAR-3 ovarian, with SF-268 CNS and with M14 melanoma was more than 100 µM each time.
As to `CC1=CSC(O)(c2ccc(Cl)cc2)c2noc(=O)n21` (stereo unspecified), the TGI with NCI-H226 lung, in the experiment with NCI-H23 lung, in the experiment on SW-620 colon, in the experiment with HCC-2998 colon, in the experiment on NCI/ADR-RES ovarian and in the experiment on HOP-92 NSCLC was more than 100 µM throughout. Also, the total growth inhibition concentration (TGI) in the experiment on SK-MEL-2 melanoma, with OVCAR-5 ovarian, with MDA-MB-435, in the experiment with K-562 leukemia, with OVCAR-3 ovarian and in the experiment on SF-268 CNS was more than 100 µM throughout. The same compound yielded a TGI in the experiment with M14 melanoma of more than 100 µM.
As for `CCN(CC)CCSc1n[nH]c(-c2c[nH]c3nc(C)ccc3c2=O)n1`, the TGI with NCI-H226 lung, in the experiment with HL-60(TB) leukemia, with NCI-H23 lung, in the experiment with SW-620 colon, in the experiment with NCI/ADR-RES ovarian and with SK-MEL-2 melanoma was more than 100 µM throughout. The TGI in the experiment on CCRF-CEM leukemia, with OVCAR-5 ovarian, with MDA-MB-435, with LOX IMVI melanoma, in the experiment on K-562 leukemia and in the experiment on OVCAR-3 ovarian was more than 100 µM throughout. Besides, the TGI in the experiment with SF-268 CNS and with M14 melanoma was more than 100 µM in each case.
On to `O=C1CCc2nc3ncccc3cc2C1`, for which the TGI in the experiment with NCI-H226 lung, with NCI-H23 lung, in the experiment on SW-620 colon, in the experiment on HCC-2998 colon, with NCI/ADR-RES ovarian and in the experiment with HOP-92 NSCLC was more than 100 µM in each case. Moreover, the total growth inhibition concentration (TGI) is more than 100 µM in the experiment on SK-MEL-2 melanoma; 72.8 µM in the experiment with CCRF-CEM leukemia; more than 100 µM in the experiment on OVCAR-5 ovarian; 82.3 µM in the experiment with MDA-MB-435; 97.7 µM in the experiment on K-562 leukemia; more than 100 µM in the experiment on OVCAR-3 ovarian. Also, the TGI in the experiment with SF-268 CNS and in the experiment with M14 melanoma was more than 100 µM in each case.
`C=C1C(=O)CCC1C(=O)O` (stereo unspecified): the TGI in the experiment on NCI-H226 lung, in the experiment on HL-60(TB) leukemia, in the experiment with NCI-H23 lung, in the experiment with SW-620 colon, with HCC-2998 colon and in the experiment with NCI/ADR-RES ovarian was more than 100 µM in each case. Also, the total growth inhibition concentration (TGI) in the experiment with SK-MEL-2 melanoma, with CCRF-CEM leukemia, with OVCAR-5 ovarian, in the experiment on MDA-MB-435, in the experiment with LOX IMVI melanoma and in the experiment on K-562 leukemia was more than 100 µM in each case. Moreover, the concentration for total growth inhibition (TGI) with OVCAR-3 ovarian, with SF-268 CNS and in the experiment with M14 melanoma was more than 100 µM each time.
For the compound `CN(C)Cc1cc(C(=O)/C=C/c2ccc(Br)cc2)cc(CN(C)C)c1O`, the concentration for total growth inhibition (TGI) in the experiment with NCI-H226 lung was 35.9 µM; with HL-60(TB) leukemia, 20.5 µM; in the experiment with NCI-H23 lung, 33 µM; in the experiment with SW-620 colon, 16 µM; in the experiment with HCC-2998 colon, 27.8 µM; in the experiment on NCI/ADR-RES ovarian it was more than 100 µM. For the same compound, the TGI in the experiment on CCRF-CEM leukemia was found to be 26.7 µM; in the experiment with OVCAR-5 ovarian it was 34 µM; in the experiment on MDA-MB-435 it was 37.9 µM; with LOX IMVI melanoma, 5.43 µM; in the experiment on K-562 leukemia it was 10.8 µM; in the experiment on OVCAR-3 ovarian, 17 µM. For the same compound, the concentration for total growth inhibition (TGI) with SF-268 CNS came out at 50.3 µM; in the experiment with M14 melanoma, 22.1 µM.
